What follows are compounds tested against T1, S1P1 receptor (Homo sapiens, UniProt P21453) (assay: 35S-GTPγS binding assay using membrane preparation of CHO cell stably expressing S1P1 receptor). Conditions: agonist activity.
T1 construct: expressed in transfected cells; membrane preparation
Format: biochemical
Procedure: ^35s-GTPγS binding assay using membrane preparation of CHO cell stably expressing S1P1 receptor
A G protein-GTPγS binding test associated with a ligand was performed by using a membrane preparation which was obtained from a CHO cell which stably overexpressed S1P1 receptor. In a 96 well-micro-titer dish, the produced membrane protein and a compound which was diluted with a solvent such as DMSO or sphingosine-1-phosphate in various concentrations was incubated in a solution containing 20 mM of Tris-Cl (pH7.5), 100 mM of NaCl, 10 mM of MgCl2, 5μM of GDP, 0.1% of BSA, and […] of ^35s-GTPγS (specific radioactivity, 1250 Ci mmol). The binding was performed for 1 or more hours at room temperature, and the membrane was harvested on a GF/B filter plate by using a Millipore's MultiScreen Separation System to end the binding. After the filter plate was dried for 30 or more minutes, 25 μL of MicroScint-20 was added to each well, and the binding was measured by using the TopCount.
For the agonist activity of compound, the value of a well which a solvent was added to was set to a control value and compared with an increment of an evaluation compound-added well, so that the increment of each concentration of the compound was obtained. EC50 value was calculated under the definition that the value is an agonist concentration required to provide 50% of the maximum increment thereof. […]

T1 sequence (P21453 whole entry): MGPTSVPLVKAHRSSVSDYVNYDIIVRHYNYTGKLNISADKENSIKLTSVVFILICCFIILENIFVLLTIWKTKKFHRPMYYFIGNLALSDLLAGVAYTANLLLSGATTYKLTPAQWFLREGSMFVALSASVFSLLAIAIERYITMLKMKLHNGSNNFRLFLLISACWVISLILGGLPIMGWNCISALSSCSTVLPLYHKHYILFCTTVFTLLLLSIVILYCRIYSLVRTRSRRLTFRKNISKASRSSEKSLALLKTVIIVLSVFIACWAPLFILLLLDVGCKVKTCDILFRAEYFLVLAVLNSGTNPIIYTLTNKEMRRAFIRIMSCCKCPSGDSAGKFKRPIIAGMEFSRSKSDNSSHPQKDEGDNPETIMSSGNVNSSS

| SMILES | EC50 [nM] |
| --- | --- |
| O=C(O)[C@H]1CC[C@@H](NCc2ccc(OCc3cc(-c4ccccc4)c(C(F)(F)F)s3)cc2)CC1 [Example 13] | 234 |
| O=C(O)[C@H]1CC[C@@H](NCc2ccc(OCc3cc(-c4ccccc4)c(C(F)(F)F)s3)cc2)C1 [Example 18] | 251 |
| O=C(O)CCNCc1ccc(OCc2ccc3c(cnn3Cc3ccccc3)c2)cc1 [Example 37, 3-(4-(1-benzyl-1H-indazol-5-yl)methoxy)benzylaminopropanoic acid] | 64 |
| O=C(O)CCNCc1ccc(-c2noc(-c3ccc(-c4ncccc4C(F)(F)F)cc3)n2)cc1 [Example 41] | 25 |
| O=C(O)CCNCc1ccc(-c2noc(-c3cnc(OC4CCCC4)c(Cl)c3)n2)cc1 [Example 44] | 13 |
| O=C(O)CCNCc1ccc(-c2noc(-c3ccc(-c4ccccc4)cc3)n2)cc1 [Example 48] | 3 |
| O=C(O)CCNCc1ccc(-c2noc(-c3ccc(-c4ccccn4)cc3)n2)cc1 [Example 50] | 42 |
| Cc1cc(-c2ccccc2)ccc1-c1nc(-c2ccc(CNCCC(=O)O)cc2)no1 [Example 55] | 34 |
| O=C(O)CCNCc1ccc(-c2noc(-c3ccc(-c4ccc(C(F)(F)F)cc4)cc3)n2)cc1 [Example 57] | 69 |
| Cc1cc(-c2ccccc2F)ccc1-c1nc(-c2ccc(CNCCC(=O)O)cc2)no1 [Example 58] | 56 |
| O=C(O)CCNCc1ccc(-c2noc(-c3ccc(-c4ccccc4C(F)(F)F)cc3)n2)cc1 [Example 62] | 0.4 |
| O=C(O)CCNCc1ccc(-c2noc(-c3ccc(-c4ccccc4F)cc3)n2)cc1 [Example 67] | 0.8 |
| O=C(O)CCNCc1ccc(-c2noc(-c3ccc(-c4cccc(F)c4)cc3)n2)cc1 [Example 68] | 5.5 |
| O=C(O)CCNCc1ccc(-c2noc(-c3ccc(-c4ccc(F)cc4)cc3)n2)cc1 [Example 69] | 14 |
| Cc1cc(-c2nc(-c3ccc(CNCCC(=O)O)cc3)no2)ccc1-c1cccc(C(F)(F)F)c1 [Example 76] | 0.35 |
| CC(C)Sc1ccc(-c2nc(-c3ccc(CNCCC(=O)O)cc3)no2)cc1 [Example 83] | 11 |

Continued, values first:

| EC50 [nM] | SMILES |
| --- | --- |
| 161 | O=C(O)C1CCC(NCc2ccc(OCc3cc(-c4ccccc4)c(C(F)(F)F)s3)cc2)CC1 (centres unmarked) [Example 9] |
| 121 | O=C(O)[C@@H]1C[C@@H](O)[C@H](NCc2ccc(OCc3cc(-c4ccccc4)c(C(F)(F)F)s3)cc2)C1 [Example 15] |
| 94 | O=C(O)[C@@H]1C[C@H](O)[C@H](NCc2ccc(OCc3cc(-c4ccccc4)c(C(F)(F)F)s3)cc2)C1 [Example 16] |
| 268 | O=C(O)[C@@H]1C[C@H](NCc2ccc(OCc3cc(-c4ccccc4)c(C(F)(F)F)s3)cc2)CN1 [Example 22] |
| 87 | O=C(O)[C@@H]1CC=C[C@@H](NCc2ccc(OCc3cc(-c4ccccc4)c(C(F)(F)F)s3)cc2)C1 [Example 24] |
| 370 | O=C(O)C(CO)NCc1ccc(OCc2cc(-c3ccccc3)c(C(F)(F)F)s2)cc1 (centres unmarked) [Example 27] |
| 160 | O=C(O)[C@@H]1CC[C@H](NCc2ccc3cnn(Cc4ccc(-c5ccccc5)cc4)c3c2)C1 [Example 35, (1R,3s)-3-N-({1-(4-phenylbenzyl)-1H-indazol-6-yl)methyl}aminocyclopentane carboxylic acid] |
| 46 | CC(C)/C=C/CCCCc1nc(-c2ccc(CNCCC(=O)O)cc2)no1 [Example 43] |
| 1.6 | O=C(O)CCNCc1ccc(-c2noc(-c3ccc(OC4CCCCC4)c(C(F)(F)F)c3)n2)cc1 [Example 45] |
| 0.6 | CC(C)Oc1ccc(-c2nc(-c3ccc(CNCCC(=O)O)cc3)no2)cc1C(F)(F)F [Example 49] |
| 0.12 | Cc1cc(-c2nc(-c3ccc(CNCCC(=O)O)cc3)no2)ccc1-c1cccc(F)c1 [Example 74] |
| 0.34 | Cc1cc(-c2nc(-c3ccc(CNCCC(=O)O)cc3)no2)ccc1-c1ccc(F)cc1 [Example 75] |
| 13 | Cc1cc(-c2nc(-c3ccc(CNCCC(=O)O)cc3)no2)ccc1-c1ccc(C(F)(F)F)cc1 [Example 77] |

Source: patent US20080200535A1, “Amine Compounds” (Asahi Kasei Pharma Corporation, priority 2006, published 2008)
